For 29 compounds, IC50 and inhibition results are on record in patent US8822449B2, “Substituted aminoindanes and analogs thereof, and the pharmaceutical use thereof” (Sanofi, priority 2008, dated 2014).

pIC50: −log10 of the molar value.

The assay has as its target T1, sodium-proton exchanger of subtype 3 (NHE3) (Homo sapiens, UniProt P48764).
T1 construct: expressed in transfected cells
T1 sequence (P48764 26-834): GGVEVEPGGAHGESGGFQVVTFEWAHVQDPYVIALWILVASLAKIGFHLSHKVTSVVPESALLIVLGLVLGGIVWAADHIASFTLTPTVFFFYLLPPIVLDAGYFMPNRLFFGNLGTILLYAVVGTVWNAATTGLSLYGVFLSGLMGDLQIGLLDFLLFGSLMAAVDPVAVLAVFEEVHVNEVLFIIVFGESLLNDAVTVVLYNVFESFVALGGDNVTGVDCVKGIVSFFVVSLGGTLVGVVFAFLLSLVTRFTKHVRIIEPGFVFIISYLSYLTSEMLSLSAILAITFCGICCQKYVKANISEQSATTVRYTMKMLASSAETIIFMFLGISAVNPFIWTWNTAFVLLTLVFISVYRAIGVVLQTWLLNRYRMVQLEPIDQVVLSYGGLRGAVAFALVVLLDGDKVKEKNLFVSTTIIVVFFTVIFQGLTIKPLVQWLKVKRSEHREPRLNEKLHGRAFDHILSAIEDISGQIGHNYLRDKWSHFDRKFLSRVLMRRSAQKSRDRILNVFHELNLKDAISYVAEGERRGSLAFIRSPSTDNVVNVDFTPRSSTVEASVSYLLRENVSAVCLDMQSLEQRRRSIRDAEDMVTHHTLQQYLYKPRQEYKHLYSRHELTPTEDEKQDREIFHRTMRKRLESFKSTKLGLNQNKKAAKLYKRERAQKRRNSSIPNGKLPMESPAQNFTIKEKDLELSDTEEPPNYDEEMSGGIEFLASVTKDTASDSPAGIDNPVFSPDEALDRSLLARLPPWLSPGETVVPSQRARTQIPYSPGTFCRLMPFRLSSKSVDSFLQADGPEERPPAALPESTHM
The assay can be described thus: Recovery of intracellular pH (pHi) after acidification in LAP1 cells stably expressing NHE3 (BCECF fluorescence, FLIPR). The assay is classed as cell-based. As to conditions: LAP1 cells stably expressing NHE3; pH recovery after acidification; range 1 is % inhibition at 10 μM; read-out: Activity range (inhibitory effect on NHE3).
Procedure: In this assay, the recovery of the intracellular pH (pHi) of LAP1 cells which stably express the sodium-proton exchanger of subtype 3 (NHE3) after acidification was determined. The recovery occurs even under bicarbonate-free conditions with functional NHE3. To this end, the pHi was determined using the pH-sensitive fluorescent dye BCECF (Molecular Probes, Eugene, Oreg., USA, employing the precursors BCECF-AM). The cells were initially incubated with BCECF (5 μM BCECF-AM) in NH4Cl buffer (NH4Cl buffer: 115 mM cholineCl, 20 mM NH4Cl, 5 mM KCl, 1 mM CaCl2, 1 mM MgCl2, 20 mM Hepes, 5 mM glucose, a pH of 7.4 was adjusted with 1 M KOH). The intracellular acidification was induced by washing the cells incubated in NH4Cl buffer with NH4Cl-free buffer (133.8 mM choline chloride, 4.7 mM KCl, 1.25 mM CaCl2, 1.25 mM MgCl2, 0.97 mM K2HPO4, 0.23 mM KH2PO4, 5 mM Hepes, 5 mM glucose, a pH of 7.4 was adjusted with 1 M KOH). After the washing step, 90 μl of the NH4Cl-free buffer were left on the cells. The pH recovery was started by adding 90 μl of Na^+-containing buffer (133.8 mM NaCl, 4.7 mM KCl, 1.25 mM CaCl2, 1.25 mM MgCl2, 0.97 mM Na2HPO4, 0.23 mM NaH2PO4, 10 mM Hepes, 5 mM glucose, a pH of 7.4 was adjusted with 1 M NaOH) in a measuring instrument (FLIPR, “Fluorometric Imaging Plate Reader”, Molecular Devices, Sunnyvale, Calif., USA). The BCECF fluorescence was determined with an excitation wavelength of 498 nm and the FLIPR emission filter 1 (bandpass from 510 to 570 nm). The subsequent changes in fluorescence as a measure of pH recovery were recorded for two minutes. To calculate the NHE3-inhibitory power of the tested substances, the cells were initially investigated in buffers with which complete or absolutely no pH recovery took place. For complete pH recovery (100%), the cells were incubated in Na^+-containing buffer (see above), and to determine the 0% value were incubated in Na^+-free buffer (see above). The substances to be tested were made up in Na^+-containing buffer. The recovery of the intracellular pH at each tested concentration of a substance was expressed as percent of the maximum recovery.
The IC50 of the respective substance for NHE3 was calculated from the percentages of pH recovery using the program XLFit (idbs, Surrey, UK).
Consider `CC(=O)Nc1cccc(O[C@H]2c3cccc(F)c3C[C@@H]2N2CCCC2)c1` (racemic) [Example 652, N-[3-(rac-trans-(1,2)-4-fluoro-2-pyrrolidin-1-ylindan-1-yloxy)phenyl]acetamide], for which the pIC50 is 5.00 to 6.00. The same measure, in the same setting: the value for `CN(C)S(=O)(=O)c1ccc(N[C@H]2c3cc(Cl)cc(Cl)c3C[C@@H]2N2CC[C@@H](O)C2)cc1` [Example 481, 4-[(1S,2S)-4,6-dichloro-2-((R)-3-hydroxypyrrolidin-1-yl)indan-1-ylamino]-N,N-dimethylbenzenesulfonamide] was 5.00 to 6.00.

In the case of `O=[N+]([O-])c1ccc(O[C@H]2c3ccccc3C[C@@H]2N2CCCC2)c(Cl)c1` (racemic) [Example 251, 1-[1-(2-chloro-4-nitrophenoxy)indan-2-yl]pyrrolidine], the inhibition at 10 µM lay in the range of 20 to 50%. In the case of `NS(=O)(=O)c1ccc(O[C@H]2c3cc(Cl)cc(Cl)c3C[C@@H]2NC2CCCC2)c(F)c1` [Example 748, 4-(trans-(1S,2S)-4,6-Dichloro-2-cyclopentylamino-indan-1-yloxy)-3-fluoro-benzenesulfonamide], the pIC50 was 5.00 to 6.00. `CN(C)C(=O)Cc1ccc(O[C@H]2c3ccccc3CC[C@@H]2N2CCC[C@H](N)C2)cc1` (racemic) [Example 382, 2-{4-[rac-trans-(1,2)-2-((S)-3-aminopiperidin-1-yl)-1,2,3,4-tetrahydronaphthalen-1-yloxy]phenyl}-N,N-dimethylacetamide]: the inhibition at 10 µM was 20 to 50%. In the case of `Cc1nnc(C)n1-c1cccc(O[C@H]2c3ccccc3C[C@@H]2N2CCCC2)c1` (racemic) [Example 404, 3,5-dimethyl-4-[3-(rac-trans-(1,2)-2-pyrrolidin-1-ylindan-1-yloxy)phenyl]-4H-[1,2,4]triazole], the inhibition at 10 µM lay in the range of 20 to 50%. `NCC1CCN([C@@H]2Cc3ccccc3[C@H]2Oc2ccc(F)cc2F)C1` (mixture of isomers) [Example 602, C-{1-[rac-trans-(1,2)-1-(2,4-difluorophenoxy)indan-2-yl]pyrrolidin-3-yl}methylamine]: the pIC50 was 5.00 to 6.00. As for `Cc1nnc(C)n1-c1ccc(O[C@H]2c3ccccc3C[C@@H]2N2CCCC2)cc1` (racemic) [Example 405, 3,5-dimethyl-4-[4-(rac-trans-(1,2)-2-pyrrolidin-1-ylindan-1-yloxy)phenyl]-4H-[1,2,4]triazole], the pIC50 is more than 6.00. On the same count and under the same terms, next, `NC1CCN([C@@H]2Cc3ccccc3[C@H]2Oc2cccc(N3CCNCC3)c2)C1` (mixture of isomers) [Example 270, 1-[rac-trans-(1,2)-1-(3-piperazin-1-ylphenoxy)indan-2-yl]pyrrolidin-3-ylamine]: 5.00 to 6.00. As for `Cc1c(Cl)cccc1O[C@H]1c2ccccc2CC[C@@H]1N1CCC[C@H](N)C1` (racemic) [Example 160, (S)-1-[rac-trans-(1,2)-1-(3-chloro-2-methylphenoxy)-1,2,3,4-tetrahydronaphthalen-2-yl]piperidin-3-ylamine], the inhibition at 10 µM lay within 20 to 50%. For the compound `COCCN(C)[C@H]1Cc2c(Cl)cc(Cl)cc2[C@@H]1Oc1ccc(-n2c(C)nnc2C)cc1` [Example 243, {trans-(1S,2S)-4,6-dichloro-1-[4-(3,5-dimethyl-[1,2,4]triazol-4-yl)phenoxy]indan-2-yl}-(2-methoxyethyl)-methylamine], the pIC50 is more than 6.00. Same read-out and setting: next, `NS(=O)(=O)c1ccc(O[C@H]2c3cc(Cl)cc(F)c3C[C@@H]2NC2CCCC2)c(F)c1` [Example 750, 4-(trans-(1S,2S)-6-Chloro-2-cyclopentylamino-4-fluoro-indan-1-yloxy)-3-fluoro-benzenesulfonamide]: 5.00 to 6.00. `O=C(O[C@H]1c2ccccc2C[C@@H]1N1CCCC1)c1ccc(N2CCCC2=O)cc1` [Example 461, 4-(2-Oxopyrrolidin-1-yl)benzoic acid (1S,2S)-2-pyrrolidin-1-ylindan-1-yl ester]: the inhibition at 10 µM was in the range of 20 to 50%.

Take `CS(=O)(=O)c1ccc(OC2c3ccccc3CC2N2CCC[C@@H](N)C2)c(Cl)c1` (mixture of isomers) [Example 37, (R)-1-[rac-trans-(1,2)-1-(2-chloro-4-methanesulfonylphenoxy)indan-2-yl]piperidin-3-ylamine]: the pIC50 was more than 6.00. Same read-out and setting: the value for `Cn1ccn(-c2ccc(F)c(O[C@H]3c4cc(F)cc(F)c4C[C@@H]3N3CC[C@@H](O)C3)c2)c1=O` [Example 317, 1-{3-[(1S,2S)-4,6-difluoro-2-((R)-3-hydroxypyrrolidin-1-yl)indan-1-yloxy]-4-fluorophenyl}-3-methyl-1,3-dihydroimidazol-2-one] was 5.00 to 6.00.

In the case of `N[C@@H]1CCCN([C@H]2Cc3c(Cl)cc(Cl)cc3[C@@H]2Oc2ccc(F)cc2-c2cc[nH]n2)C1` [Example 113, (R)-1-{(1S,2S)-4,6-dichloro-1-[4-fluoro-2-(1H-pyrazol-3-yl)phenoxy]indan-2-yl}piperidin-3-ylamine], the pIC50 is more than 6.00. As for `Cc1nnc(C)n1-c1ccc(O[C@H]2c3cc(Cl)cc(Cl)c3C[C@@H]2N2CCCN(C)CC2)cc1` [Example 349, 1-{trans-(1S,2S)-4,6-dichloro-1-[4-(3,5-dimethyl-[1,2,4]triazol-4-yl)phenoxy]indan-2-yl}-4-methyl-[1,4]diazepane], the pIC50 is more than 6.00. The same measure, in the same setting: next, `CS(=O)(=O)c1ccc(O[C@H]2c3cc(Cl)cc(Cl)c3C[C@@H]2N2CCC[C@H]2CN2CCCC2)cc1` [Example 195, (S)-1-[trans-(1S,2S)-4,6-dichloro-1-(4-methanesulfonylphenoxy)indan-2-yl]-2-pyrrolidin-1-ylmethylpyrrolidine]: more than 6.00. The same measure, in the same setting: the value for `Cc1nnc(C)n1-c1ccc(O[C@H]2c3cc(Cl)ccc3C[C@@H]2N2CC[C@@H](O)C2)c(Cl)c1` [Example 139, (R)-1-{trans-(1S,2S)-6-chloro-1-[2-chloro-4-(3,5-dimethyl-[1,2,4]triazol-4-yl)phenoxy]indan-2-yl}pyrrolidin-3-ol] was more than 6.00. Turning to `CC(=O)NCc1cccc(O[C@H]2c3ccccc3C[C@@H]2N2CCCC2)c1` (racemic) [Example 640, N-[3-(rac-trans-(1,2)-2-pyrrolidin-1-ylindan-1-yloxy)benzyl]acetamide], the pIC50 was more than 6.00. As for `Cc1cc(O[C@H]2c3cc(F)cc(Cl)c3C[C@@H]2N2CCCC2)ccc1S(C)(=O)=O` (racemic) [Example 282, 1-[rac-trans-(1,2)-4-chloro-6-fluoro-1-(4-methanesulfonyl-3-methylphenoxy)indan-2-yl]pyrrolidine], the inhibition at 10 µM lay in the range of 20 to 50%.

Take `CS(=O)(=O)c1ccccc1O[C@H]1c2ccccc2CC[C@@H]1N1CCOCC1` (racemic) [Example 506, 4-[rac-trans-(1,2)-1-(2-methanesulfonylphenoxy)-1,2,3,4-tetrahydronaphthalen-2-yl]morpholine]: the inhibition at 10 µM was in the range of 20 to 50%. For `N#Cc1c(F)cccc1O[C@H]1c2ccccc2CC[C@@H]1N1CCC[C@@H](N)C1` (racemic) [Example 367, 2-[rac-trans-(1,2)-2-((R)-3-aminopiperidin-1-yl)-1,2,3,4-tetrahydronaphthalen-1-yloxy]-6-fluorobenzonitrile], the inhibition at 10 µM lay in the range of 20 to 50%.

On to `Cc1nnc(C)n1-c1ccc(F)c(O[C@H]2c3cc(Cl)cc(Cl)c3C[C@@H]2N2CC[C@@H](O)C2)c1` [Example 114, (R)-1-{(1S,2S)-4,6-dichloro-1-[5-(3,5-dimethyl-[1,2,4]triazol-4-yl)-2-fluorophenoxy]indan-2-yl}pyrrolidin-3-ol], for which the pIC50 was 5.00 to 6.00. Consider `Cc1cccc(Cl)c1O[C@H]1c2ccccc2CC[C@@H]1N1CCC[C@@H](N)C1` (racemic) [Example 39, (R)-1-[rac-trans-(1,2)-1-(2-chloro-6-methylphenoxy)-1,2,3,4-tetrahydronaphthalen-2-yl]piperidin-3-ylamine], for which the inhibition at 10 µM is 20 to 50%. In the case of `N[C@@H]1CCCN([C@@H]2Cc3ccccc3[C@H]2Oc2ccnc3ccccc23)C1` (racemic) [Example 88, (R)-1-[rac-trans-(1,2)-1-(quinolin-4-yloxy)indan-2-yl]piperidin-3-ylamine], the pIC50 was 5.00 to 6.00. As to `Clc1cc(Cl)c2c(c1)[C@H](Oc1cccc(-n3cnnn3)c1)[C@@H](N1CCNCC1)C2` [Example 248, 1-[(1S,2S)-4,6-dichloro-1-(3-tetrazol-1-ylphenoxy)indan-2-yl]piperazine], the pIC50 is more than 6.00. The same measure, in the same setting: the value for `O=C(O)COC(=O)Nc1ccc(O[C@H]2c3cc(Cl)cc(Cl)c3C[C@@H]2N2CC[C@@H](O)C2)c(Cl)c1` [Example 236, {3-chloro-4-[(1S,2S)-4,6-dichloro-2-((R)-3-hydroxypyrrolidin-1-yl)indan-1-yloxy]phenylcarbamoyloxy}acetic acid] was more than 6.00; that for `NCC1CCN([C@@H]2Cc3ccccc3[C@H]2Oc2cccc(NC(N)=O)c2)CC1` (racemic) [Example 235, {3-[rac-trans-(1,2)-2-(4-aminomethylpiperidin-1-yl)indan-1-yloxy]phenyl}urea] was 5.00 to 6.00.
